Patent publication US12612395B2, “Rocaglate derivatives and uses thereof” (TRUSTEES OF BOSTON UNIVERSITY, priority 2023, dated 2026)

test system: eIF4A paralogs (eIF4A1); experiment: PISA assay in GBM0308 cell lysates, eIF4A; type: binding, human; conditions: GBM0308 lysate, compound 10 μM, AMP-PNP and (AG)8 RNA added
From the text: Derivatization-free target identification using a modified proteome integral solubility alteration (PISA) assay. The inventors next pursued proteome-wide target identification to better understand the target profiles of CSC-selective rocaglates. To enable cross-compound comparisons of target engagement, the inventors opted to use the Proteome Integral Solubility Alteration (PISA) assay,^29 a derivative of the mass spectrometry-based Cellular Thermal Shift Assay (MS-CETSA). In MS-CETSA,^30,31 target engagement is inferred through proteome-wide analysis of compound-induced changes to protein thermal stability; proteins with a shift in their half-maximal thermal denaturation temperature upon compound treatment are flagged as potential targets. The PISA assay obviates the need for MS-CETSA-derived thermal denaturation curves through curve integration by pooling of individual temperature points into a single “integral” sample for each treatment condition, thereby increasing throughput (FIG. 9). In contrast to MS-CETSA (which relies on curve comparisons), PISA determinations are performed by simply comparing soluble protein abundance levels between compound- and DMSO-treated samples. Importantly, protein fold-change measurements in PISA experiments generally scale with the thermal shift derived from CETSA experiments, and the magnitude of a thermal shift can inform on relative affinity between compounds and individual targets.^30,32-25 Maximal stability changes are protein-specific,^36 however, precluding estimations of preference for one target over another. Thus, PISA allows for simultaneous target profiling and comparisons of binding affinity between different compounds within a given target.
Of note, we also detected stabilization of DDX3Y, a paralog which shares >90% sequence similarity with DDX3X.
PISA assay in GBM0308 cell lysates: The PISA assay was performed in lysates as described by Gaetani and coworkers^S2 with slight modification. Pelleted GBM0308 cells were resuspended in ice-cold lysis buffer (1×PBS pH 7.4, 2 mM MgCl2, 0.5 mM AMP-PNP, 1 μM (AG)8 RNA, HALT protease inhibitor cocktail EDTA-free) and subjected to three freeze-thaw cycles with liquid nitrogen to extract lysate proteins. Thawing was performed at room temperature until ˜80% thawed, then completed on ice. Lysate was clarified by centrifugation for 10 minutes at 20,000 RCF and 4° C., transferred to a fresh Eppendorf tube, then centrifuged again for 10 minutes at 20,000 RCF and 4° C. to ensure removal of debris. Lysate concentration was determined using a Pierce BCA Protein Assay Kit and adjusted to 2.0 mg/mL in lysis buffer. Lysate was mixed 1:1 with a 2× solution of test compound or DMSO in lysis buffer, gently aspirated to ensure proper mixing, and incubated at room temperature for 10 minutes. […]

Q: Which “thermal stabilization of eIF4A paralogs (PISA), in words” value (“thermal stabilization of eIF4A paralogs” for short) does the source give for `COc1cc(OC)c2c(c1)O[C@@]1(c3ccc(Br)cc3)[C@H](c3ccccc3)[C@@H](C(=O)NS(=O)(=O)N(C)C)[C@@H](O)[C@@]21O` [(−)-20, (1R,2R,3S,3aR,8bS)-3a-(4-bromophenyl)-N—(N,N-dimethylsulfamoyl)-1,8b-dihydroxy-6,8-dimethoxy-3-phenyl-2,3,3a,8b-tetrahydro-1H-cyclopenta[b]benzofuran-2-carboxamide] here?
A: stabilized

Q: `CONC(=O)[C@H]1[C@@H](O)[C@@]2(O)c3c(OC)cc(OC)cc3O[C@@]2(c2ccc(OC)cc2)[C@@H]1c1ccccc1` [(−)-5, CR-1-31b, reference compound] was tested. Which “thermal stabilization of eIF4A paralogs” value did it give?
A: stabilization

Q: With `CONC(=O)[C@H]1[C@@H](O)[C@@]2(O)c3c(OC)cc(OC)cc3O[C@@]2(c2ccc(Br)cc2)[C@@H]1c1ccccc1` [(−)-7, SDS-1-021] as the compound, how does the “thermal stabilization of eIF4A paralogs” value read?
A: stabilized
